Results: ChEMBL document CHEMBL5512610, “Drug discovery and optimization based on the co-crystal structure of natural product with target” (Eur J Med Chem, 2024)

What was measured:
[1] = molecular target: Cyclin-dependent kinase 2 (Homo sapiens, UniProt P24941); assay: Inhibition of CDK2 (unknown origin)
[2] = molecular target: T1, Cyclin-dependent kinase 9 (Homo sapiens, UniProt P50750); assay: Inhibition of CDK9 (unknown origin)
Hepatitis C virus = assay: Antiviral activity against Hepatitis C virus genotype 1b infected in human Huh-7 cells assessed as reduction in viral infection; assay type: functional, organism-based, Hepacivirus hominis
HepG2 = assay: Cytotoxicity against human HepG2 cells assessed as reduction in cell growth; assay type: functional, cell-based
Plasmodium falciparum = assay: Antiplasmodial activity against Plasmodium falciparum K1 assessed as reduction in parasite growth; assay type: functional, organism-based
[3] = Oral bioavailability in mouse; assay type: ADME, organism-based; settings: in vivo
[4] = Binding affinity to actin (unknown origin) assessed as dissociation constant; parameters: species or system Homo sapiens
A549 = assay: Growth inhibition of human A549 cells incubated for 72 hrs by MTT assay; assay type: functional
NCI-N87 = assay: Antitumor activity against human NCI-N87 cells assessed as reduction in cell growth; assay type: functional, cell-based
MRC5 [5] = assay: Antiproliferative activity against human MRC5 cells assessed inhibition of cell growth incubated for 48 hrs by MTT assay; assay type: functional, cell-based; settings: MRC5, 48 h
[6] = Cytotoxicity against HUVEC cells assessed as inhibition of cell growth incubated for 72 hrs by MTT assay; assay type: toxicity, cell-based; settings: human
[7] = Cytotoxicity against human ARPE-19 cells assessed as cell growth inhibition incubated for 72 hrs by MTT assay; assay type: toxicity, cell-based
MRC5 [8] = assay: Cytotoxicity against human MRC5 cells assessed as reduction in cell viability; assay type: functional, cell-based
[9] = molecular target: T1, Cyclin-dependent kinase 9; assay: Inhibition of human recombinant CDK9 (773 to 928 residues) expressed in insect cells; parameters: species or system Insect cell

T1 sequence (P50750 whole entry): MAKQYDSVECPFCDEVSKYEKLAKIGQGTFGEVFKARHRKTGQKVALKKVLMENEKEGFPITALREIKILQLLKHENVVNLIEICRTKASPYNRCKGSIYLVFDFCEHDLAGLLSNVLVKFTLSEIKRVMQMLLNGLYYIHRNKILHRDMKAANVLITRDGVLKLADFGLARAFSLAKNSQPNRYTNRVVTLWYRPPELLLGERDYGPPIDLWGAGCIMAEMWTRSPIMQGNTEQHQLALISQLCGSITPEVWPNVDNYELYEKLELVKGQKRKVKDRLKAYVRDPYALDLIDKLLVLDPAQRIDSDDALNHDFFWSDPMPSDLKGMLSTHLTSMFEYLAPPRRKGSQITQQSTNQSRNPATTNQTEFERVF

Molecule `Nc1nccc(-c2c[nH]c3nccc(O)c23)n1` [MERIOLIN 2] has an IC50 [1] of 3100 nM and an IC50 [2] of 2600 nM.
For `CC[C@H]1C[C@H](C)[C@@]2(NC1=O)O[C@@H](C[C@H](O)[C@@H](C)CC/C=C/C=C(\C)[C@@H]1C/C=C/C=C/[C@H](O)[C@H](C)[C@@H](O)[C@@H](CCC(C)=O)C(=O)N[C@@H](C(C)C)C(=O)N[C@@H](Cc3cccc(O)c3)C(=O)N3CCC[C@H](N3)C(=O)O1)[C@H](C)[C@H](O)[C@@H]2C` [SANGLIFEHRIN A], the EC50 (Hepatitis C virus) was 87 nM.
For `CC[C@]1(NC(N)=O)[C@@H](N)[C@H](Nc2cccc(C(C)=O)c2)[C@](O)(COC(=O)c2c(C)cccc2O)[C@]1(C)O`, the IC50 (HepG2) was > 9500 nM.
Work on `CC(=O)c1cccc(N[C@H]2[C@H](N)[C@](C)(NC(=O)N(C)C)[C@@](C)(O)[C@@]2(O)CO)c1` yielded an IC50 (Plasmodium falciparum) of 62 nM.
In the case of `CC(=O)N(C)[C@H](C(=O)N1C[C@H](C)C[C@H]1C(=O)N(C)[C@@H]1C(=O)N[C@@H](CC(C)C)C(=O)N2C[C@H](C)C[C@H]2C(=O)N[C@@H](CC(C)C)C(=O)N(C)[C@@H](C(C)C)C(=O)N2CC(C3CCCCC3)C[C@H]2C(=O)N(C)[C@H](CC(C)C)C(=O)NCC(=O)O[C@@H]1C)C(C)C` (stereo partly drawn), the bioavailability [3] is reported as 89%.
With `C=C[C@@H](C)CC[C@@H]1CCC[C@]2(CC[C@H](C)[C@@H](CCCNC(=O)[C@@H](C)[C@@H](O)CNC(=O)CCOC)O2)O1` the Kd [4] was 43 nM and the GI50 (A549) was 15100 nM.
`C=C[C@H](C)CCC[C@@H]1CCC[C@]2(CC[C@H](C)[C@@H](CCCNC(=O)[C@@H](C)[C@@H](O)CNC(=O)C[C@@H]3OC(CC(=O)/C=C/C)CC[C@@H]3C)O2)O1` (stereo partly drawn) showed a Kd [4] of 70 nM and a GI50 (A549) of 87.1 nM.
With `CC(=O)N(C)[C@H](C(=O)N1C[C@H](C)C[C@H]1C(=O)N(C)[C@@H]1C(=O)N[C@@H](CC(C)C)C(=O)N2C[C@H](C)C[C@H]2C(=O)N[C@@H](CC(C)C)C(=O)N(C)[C@@H](C(C)C)C(=O)N2CC(C)C[C@H]2C(=O)N(C)[C@H](CC(C)C)C(=O)NCC(=O)O[C@@H]1C)C(C)C` (stereo partly drawn) the bioavailability [3] was 47%.
With `CC[C@]1(NC(N)=O)[C@@H](N)[C@H](Nc2cccc(C(C)=O)c2)[C@](O)(CO)[C@]1(C)O` the IC50 (HepG2) was > 5600 nM.
Work on `CO[C@H]1/C=C\C=C(/C)C(=O)NC2=CC(=O)C(NCCN(C)C)=C(C[C@@H](C)C[C@H](OC)[C@H](O)[C@@H](C)/C=C(\C)[C@@H]1OC(N)=O)C2=O` (stereo in doubt) [ALVESPIMYCIN] yielded an EC50 (NCI-N87) of 62 nM.
`C/C=C/C(=O)C[C@H]1CC[C@H](C)[C@H](CC(=O)NC[C@H](O)[C@H](C)C(=O)NCCC[C@H]2O[C@@]3(CCC[C@@H](CC[C@@H](C)/C=C(\C)[C@@H](C)O)O3)CC[C@@H]2C)O1` showed a Kd [4] of 7 nM and a GI50 (A549) of 20.4 nM.
`CC(=O)c1cccc(N[C@H]2[C@H](N)[C@@](NC(=O)N(C)C)([C@H](C)O)[C@@](C)(O)[C@@]2(O)COC(=O)c2c(C)cccc2O)c1` [PACTAMYCIN] gave an IC50 (MRC5 [5]) of 95 nM, an IC50 (Plasmodium falciparum) of 187 nM and an IC50 (HepG2) of 86 nM.
With `C=CCNC1=C2C[C@@H](C)C[C@H](OC)[C@H](O)[C@@H](C)/C=C(\C)[C@H](OC(N)=O)[C@@H](OC)/C=C\C=C(/C)C(=O)NC(=C(C)C1=O)C2=O` (stereo in doubt) the IC50 at 72 h [6] was > 20000 nM and the IC50 at 72 h [7] was > 20000 nM.
In the case of `C=CCNC1=C2C[C@@H](C)C[C@H](OC)[C@H](O)[C@@H](C)/C=C(\C)[C@H](OC(N)=O)[C@@H](OC)/C=C\C=C(/C)C(=O)NC(=C(c3ccccc3)C1=O)C2=O` (stereo in doubt), the IC50 at 72 h [6] is reported as > 20000 nM and the IC50 at 72 h [7] is reported as > 20000 nM.
Molecule `CC(=O)c1cccc(N[C@H]2[C@H](N)[C@](C)(NC(=O)N(C)C)[C@@](C)(O)[C@@]2(O)COC(=O)c2c(C)cccc2O)c1` has an IC50 (Plasmodium falciparum) of 77 nM.
Molecule `COCCC(=O)NC[C@H](O)[C@H](C)C(=O)NCCC[C@H]1O[C@@]2(CCC[C@@H](CC[C@@H](C)/C=C(\C)[C@@H](C)O)O2)CC[C@@H]1C` has a Kd [4] of 9 nM.
In the case of `CO[C@H]1/C=C\C=C(/C)C(=O)NC2=C(C)C(=O)C(NCCN(C)C)=C(C[C@@H](C)C[C@H](OC)[C@H](O)[C@@H](C)/C=C(\C)[C@@H]1OC(N)=O)C2=O` (stereo in doubt), the IC50 at 72 h [6] is reported as > 20000 nM and the IC50 at 72 h [7] is reported as > 20000 nM.
Work on `CC[C@]1(NC(=O)N(C)C)[C@@H](N)[C@H](Nc2cccc(C(C)=O)c2)[C@](O)(CO)[C@]1(C)O` yielded an IC50 (MRC5 [8]) of 5.6 nM.
`C=CCC1CC[C@H](C)[C@H](CC(=O)NC[C@H](O)[C@H](C)C(=O)NCCC[C@H]2O[C@@]3(CCC[C@@H](CC[C@H](C)C=C)O3)CC[C@@H]2C)O1` (stereo partly drawn) gave a Kd [4] of 39 nM and a GI50 (A549) of 11200 nM.
For `Nc1nccc(-c2c3cccnc3n3c(N)nccc23)n1`, the IC50 [9] was 26 nM.
In the case of `Nc1nccc(-c2c[nH]c3ncccc23)n1` [MERIOLIN 1], the IC50 [2] is reported as 10000 nM.
`C=CCC[C@@H]1CCC[C@]2(CC[C@H](C)[C@@H](CCCNC(=O)[C@@H](C)[C@@H](O)CNC(=O)C[C@@H]3OC(CC(=O)/C=C/C)CC[C@@H]3C)O2)O1` (stereo partly drawn) showed a Kd [4] of 1500 nM and a GI50 (A549) of 323 nM.
